In assay [1] the target is T1, Disks large homolog 4 (Homo sapiens, UniProt P78352). The assay can be described thus: Binding affinity to human PSD95 domain PDZ1 expressed in Escherichia coli BL21-DE3 by fluorescence polarization assay. For orientation: Polarisation of emitted light reports the rotation of a fluorescent probe.
Target sequence in this assay (P78352 whole entry, looked up, the tested form may be a part): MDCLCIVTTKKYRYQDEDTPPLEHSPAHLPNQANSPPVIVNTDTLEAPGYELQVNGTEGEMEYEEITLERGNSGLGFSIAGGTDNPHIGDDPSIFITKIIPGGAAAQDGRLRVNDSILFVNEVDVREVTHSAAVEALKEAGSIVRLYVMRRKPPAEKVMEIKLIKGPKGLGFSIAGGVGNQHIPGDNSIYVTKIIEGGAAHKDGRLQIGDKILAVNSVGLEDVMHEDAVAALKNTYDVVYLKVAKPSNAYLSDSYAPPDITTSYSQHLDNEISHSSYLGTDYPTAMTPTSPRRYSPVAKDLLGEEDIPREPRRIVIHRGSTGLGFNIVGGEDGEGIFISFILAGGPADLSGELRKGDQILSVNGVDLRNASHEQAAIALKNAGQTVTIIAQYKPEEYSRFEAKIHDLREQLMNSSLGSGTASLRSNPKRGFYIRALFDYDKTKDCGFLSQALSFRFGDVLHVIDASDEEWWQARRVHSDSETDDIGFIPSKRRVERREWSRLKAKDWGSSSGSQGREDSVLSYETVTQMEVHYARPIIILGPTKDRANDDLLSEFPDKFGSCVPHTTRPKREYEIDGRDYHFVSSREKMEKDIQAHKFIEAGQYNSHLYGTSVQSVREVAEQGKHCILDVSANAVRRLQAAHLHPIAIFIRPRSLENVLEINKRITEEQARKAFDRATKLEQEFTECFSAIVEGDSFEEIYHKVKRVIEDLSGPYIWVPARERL
Assay [2] addresses T1, Disks large homolog 4. Kind of assay: Binding affinity to human PSD95 domain PDZ2 expressed in Escherichia coli BL21-DE3 by fluorescence polarization assay.
Target sequence in this assay (P78352 whole entry, looked up, the tested form may be a part): as above
The target of assay [3] is T1, Disks large homolog 4. Kind of assay: Binding affinity to human PSD95 domain PDZ1 expressed in Escherichia coli BL21-DE3 by fluorescence polarization assay.
Target sequence in this assay (P78352 whole entry, the tested form may be a part): as the sequence (P78352 whole entry, looked up, the tested form may be a part) above
Assay [4] has as its target T1, Disks large homolog 4. Kind of assay: Binding affinity to human PSD95 domain PDZ2 expressed in Escherichia coli BL21-DE3 by fluorescence polarization assay.
Target sequence in this assay (P78352 whole entry, the tested form may be a part): as the sequence (P78352 whole entry, looked up, the tested form may be a part) above
Assay [5] deals with T1, Disks large homolog 4. The assay can be described thus: Binding affinity to human PSD95 domain PDZ3 expressed in Escherichia coli BL21-DE3 by fluorescence polarization assay.

Activity calls are given as the source filed them. No cut-off for these calls is given here. Where a SMILES comes first, the peptide text is derived from it. [ ]: non-standard residue; d: D form. NMeV = CN[C@H](C(=O)O)C(C)C; NMeS = CN[C@@H](CO)C(=O)O; hSer = N[C@@H](CCO)C(=O)O; Abu = CC[C@H](N)C(=O)O; Aib = CC(C)(N)C(=O)O

Drawing on ChEMBL document CHEMBL1140152, “Modified peptides as potent inhibitors of the postsynaptic density-95/N-methyl-D-aspartate receptor interaction” (J Med Chem, 2008), this text covers Activity and Ki for 14 molecules.

For the molecule `CC(C)[C@H](NC(=O)[C@H](CC(=O)O)NC(=O)[C@@H](NC(=O)[C@@H](N)CCC(=O)O)[C@H](C)CO)C(=O)O`, the outcome in assay [1] and in assay [2] was inactive.
Regarding `CC(C)[C@H](NC(=O)[C@H](CC(=O)O)NC(=O)[C@H](CCO)NC(=O)[C@@H](N)CCC(=O)O)C(=O)O` (H-E[hSer]DV-OH), the result in assay [1] and in assay [2] was inactive.
For orientation: Ki means the equilibrium dissociation constant of an inhibitor or competing ligand from its target. A high value points to lower affinity. As to `CC(C)[C@H](NC(=O)[C@H](C)NC(=O)[C@@H](NC(=O)[C@H](CCC(=O)O)NCCc1ccc2ccccc2c1)[C@@H](C)O)C(=O)O`, the affinity in assay [3], expressed as Ki, was 1000 nM.
In assay [4], `CC(C)[C@H](NC(=O)[C@H](C)NC(=O)[C@@H](NC(=O)[C@H](CCC(=O)O)NCCCc1ccc(F)c(F)c1)[C@@H](C)O)C(=O)O` gave a Ki of 1000 nM.
As for `CC(C)[C@H](NC(=O)[C@H](CC(=O)O)NC(=O)[C@@H](NC(=O)[C@@H](N)CCC(=O)O)C(C)(C)CO)C(=O)O`, the result in assay [1] and in assay [2] was inactive.
In the case of `CC(C)(NC(=O)[C@H](CC(=O)O)NC(=O)[C@H](CO)NC(=O)[C@@H](N)CCC(=O)O)C(=O)O` (H-ESD[Aib]-OH), the outcome in assay [1] and in assay [2] was inactive.
As to `CC(C)[C@H](NC(=O)[C@H](C)NC(=O)[C@@H](NC(=O)[C@H](CCC(=O)O)NCCC1CCCCC1)[C@@H](C)O)C(=O)O`, the affinity in assay [5] corresponds to a Ki of 11000 nM.
For the molecule `CC[C@H](C)[C@H](NC(=O)[C@H](CO)NC(=O)[C@H](CO)NC(=O)[C@H](CC(C)C)NC(=O)[C@H](CCCCN)NC(=O)[C@H](CCCNC(=N)N)NC(=O)[C@H](CCCNC(=N)N)NC(=O)[C@H](CCCNC(=N)N)NC(=O)[C@H](CCC(N)=O)NC(=O)[C@H](CCCNC(=N)N)NC(=O)[C@H](CCCNC(=N)N)NC(=O)[C@H](CCCCN)NC(=O)[C@H](CCCCN)NC(=O)[C@H](CCCNC(=N)N)NC(=O)CNC(=O)[C@@H](N)Cc1ccc(O)cc1)C(=O)N[C@@H](CCC(=O)O)C(=O)N[C@@H](CO)C(=O)N[C@@H](CC(=O)O)C(=O)N[C@H](C(=O)O)C(C)C`, the outcome in assay [5] was inactive.
For `CC(C)[C@H](NC(=O)[C@H](C)NC(=O)[C@@H](NC(=O)[C@H](CCC(=O)O)NCC1CCCCC1)[C@@H](C)O)C(=O)O`, the Ki in assay [3] came out at 1000 nM.
With `CC(C)[C@@H](C(=O)O)N(C)C(=O)[C@H](CC(=O)O)NC(=O)[C@H](CO)NC(=O)[C@@H](N)CCC(=O)O` (H-ESD[NMeV]-OH), the outcome in assay [1] and in assay [2] was inactive.
Take `CN[C@@H](CCC(=O)O)C(=O)N[C@H](C(=O)N[C@@H](C)C(=O)N[C@H](C(=O)O)C(C)C)[C@@H](C)O`: the affinity in assay [3], expressed as Ki, was 11000 nM.
As to `CC(C)[C@H](NC(=O)[C@H](CC(=O)O)NC(=O)[C@H](CO)N(C)C(=O)[C@@H](N)CCC(=O)O)C(=O)O` (H-E[NMeS]DV-OH), the result in assay [1] and in assay [2] was inactive.
Turning to `CC[C@H](NC(=O)[C@H](CC(=O)O)NC(=O)[C@H](CO)NC(=O)[C@@H](N)CCC(=O)O)C(=O)O` (H-ESD[Abu]-OH), the outcome in assay [2] was inactive.
Turning to H-KSGYEKLSSIESDV-OH, the result in assay [5] was inactive.
